Measurements as given in patent US20260098072A1, “METHODS OF STIMULATING APPETITE AND/OR INCREASING BODY WEIGHT USING NON-NATURALLY OCCURRING MELANOCORTIN RECEPTOR ANTAGONIST ANALOGS” (Endevica Bio, Inc., priority 2022, published 2026).
Several values for one entry are separate records, joined by “and”; a condition that tells them apart may be missing. Equal entries are not always repeated. Entries after “also recorded” stand apart in the source; their conditions may differ. Where two headings read alike, the source gives them in different places. Positions of bridges follow the written chain, without caps; N, C: chain ends. Non-standard residues stand in square brackets, D forms with d. Residues, ends and D or L forms follow the SMILES beside them. No end group written: not given here. d2Nal = N[C@H](Cc1ccc2ccccc2c1)C(=O)O; Nle = CCCC[C@H](N)C(=O)O

What was measured:
[1] = biological target: T1, human MC3R (Homo sapiens, UniProt P41968); test: cAMP accumulation assay (HTRF), antagonist activity at MC3R; format: cell-based; settings: for Emax / IC50: HEK293/CRE-luc/MC3R; for Emax: 0.1 nM to 1,000 nM, read-out: Max Activation %; for IC50: estimated from dose-response curve
T1 construct: expressed in transfected cells; host or cells: HEK293/CRE-luc/MC3R
Description: (§1) The antagonist activity of exemplary non-naturally occurring melanocortin analogs (SEQ ID NOs: 3, 4, 6, 9-11, 14, 15, and 291-309) at the melanocortin 3 receptor (MC3R) and melanocortin 4 (MC4R) receptor was measured via cAMP accumulation assay, according to the following procedure.
(§2) Recombinant cell lines shown in Table 1 were stimulated with melanocortin receptor antagonists and evaluated for cyclic adenosine monophosphate (cAMP) levels as a measurement of receptor activation. cAMP levels were quantified using Homogeneous Time-Resolved Fluorescence (HTRF). The stimulation and CAMP measurement were performed sequentially. First, the compound stimulated the G-protein coupled receptor (GPCR) which then induced downstream signaling, which was measured soon after. Cell lines and stimulated receptors used are detailed in Table 1.
(§3) Twenty-seven exemplary synthetic peptides were tested for antagonist activity at the human MC3R and MC4R at concentrations ranging from 0.1 nM to 1,000 nM. After stimulation, the level of cyclic adenosine monophosphate (CAMP) in each well was quantified via Homogenous Time-Resolved Fluorescence (HTRF) as a measurement of receptor activity. Dose-response curves and estimated IC50 values were then obtained for each antagonist peptide against the MC3R and MC4R. HS024 (TFA) and was used as a positive control for the antagonist activity of MC3R (FIG. 1A) and MC4R (FIG. 1B).

[2] = biological target: T2, human MC4R (Homo sapiens, UniProt P32245); test: cAMP accumulation assay (HTRF), antagonist activity at MC4R; format: cell-based; settings: for Emax: HEK293, HEK293/MC4R/CRE-GFP, 0.1 nM to 1,000 nM, read-out: Max Activation %; for IC50: HEK293/MC4R/CRE-GFP, estimated from dose-response curve
T2 construct: expressed in transfected cells; host or cells: HEK293/MC4R/CRE-GFP
Description: as §1, §2, §3

[3] = system: LPS model of cachexia; test: LPS-induced cachexia assay in rats; format: in vivo, rat; settings: for peripheral (IP) anti-cachexia activity / blood-brain barrier transport: peripheral administration
Description: The LPS model uses rats were maintained on a 12 h light/dark schedule with ad libitum access to food and water. Animals were handled daily for a minimum of three consecutive days to decrease non-specific handling stress. On the day of the experiment, individually housed animals received intraperitoneal injections of LPS dissolved in 0.5% low-endotoxin BSA, 0.9% saline or 0.5% BSA in 0.9% saline alone, and were returned to their home cage. The drug or control was administered (ICV, IP, or PO, depending on the type of study) 1-hour after LPS injection.
In the experiments performed in accordance with the present technology, a series of melanocortin receptor antagonist peptides were examined in a bacterial endotoxin inducing cachexia assay. For this assay, a rat is challenged with a single peripheral injection of lipopolysaccharide (LPS). LPS is a heat-stable lipo-polysaccharide, the major component of the outer membrane (capsule) of gram negative bacteria. In non-capsulated strains, it appears as a cell surface protein. LPS produces a strong immune response, including secretion of the proinflammatory cytokines Tumor Necrosis Factor α (TNFα) and interleukin-1 (IL-1). Proinflammatory cytokines are known factors that induce cachexia.
Rats are maintained on a 12-hour light/dark cycle. Animals are handled daily for a minimum of 5 consecutive days to acclimate them to the handling required for the experiment. […] On the day of the experiment, individually housed animals receive intraperitoneal (IP) injections of LPS dissolved in 0.5% low-endotoxin BSA, 0.9% saline or 0.5% BSA in 0.9% saline alone, and returned in their home cage. Melanocortin receptor antagonist peptides were administered (IP or by gavage, depending on the type of study) one hour after the LPS injection. The extent of cachexia is measured by the reduction in food intake, measured every two hours. The cachexia typically lasts only a single day. However, rats lose up to 5% of their body weight during a 12-hour light cycle, making up this loss plus food needed for normal growth during the 12-hour dark cycle. Thus, failure to eat appropriately during a single dark cycle is determinable from the animal's weight and any changes thereof.
A series of melanocortin receptor antagonist peptides were examined in a bacterial toxin inducing cachexia assay. In this assay, a rat was challenged with a single peripheral injection of lipopolysaccharide (LPS), a bacterial toxin that rapidly induces acute cachexia. The extent of cachexia was measured as a reduction in food intake, measured every two hours. The cachexia typically lasts only a single day.

[4] = system: Lewis sarcoma rat; test: Reversal of cachexia-induced lethargy; format: in vivo; settings: once-daily peripheral dosing for 48 hours (2 IP doses)
Source text: In animals and humans, cachexia produces “lethargy,” i.e., the aversion to activity. Grossberg et al., J. Neurosci. 31 (31): 11376-11386. […] This therapeutic effect is dependent on a stabilized non-naturally occurring melanocortin analog C-terminal extension. Video recordings characterized control animal behavior as neo-exploratory movement about the cage, i.e., repeated “sniffing” the air to presumably sample odors (e.g., neighboring animals), grooming, and intermittent bouts of eating and drinking. Caldecott-Hazard et al., J. Neurosci. 8 (6): 1951-1961 (1988).
The animal typically remains in one position for an extended period of time (>1 minute). Occasionally it will change position, assuming the new position for an extended period. The rats show no grooming behavior, evident in the appearance of their coat and eyes.

[5] = system: LPS model of cachexia; settings: Sutton et al., Peptides 29 (1): 104-111 (2008); cited from earlier work
[6] = system: urethane-anesthetized rats; test: Cardiovascular effects (MAP, heart rate, ECG) in urethane-anesthetized rats; settings: 200 nmol
Description: (§4) These studies were performed in urethane-anesthetized rats, since anesthesia is required for six-lead ECG monitoring. […] Initial selection of doses was guided by FDA exploratory IND studies with a recommendation for at least a 100-fold excess of the human dose.

[7] = system: Lewis sarcoma rat model; test: Lewis sarcoma rat model of cancer cachexia; format: in vivo; settings: 2 nmol once per day
Description: This sarcoma is an aggressive form of cancer that produces significant cachexia. Popp et al., Cancer 49 (6): 1212-1220 (1982). In the protocol, “treatment” began 8-days after tumor implantation, with a significant decrease in food intake from baseline. Body composition was determined by NMR prior to tumor implantation, and on the final day of the experiment after tumor resection, by ECHO MRI (NMR). Tumor implantation produces cachexia on or about the sixth day. The non-naturally occurring melanocortin analog or saline was administered after day 8 and continued through day 12.

[8] = system: urethane-anesthetized rats; settings: rat, in vivo
Description: as §4

[9] = TCMCB07 in plasma and cerebrospinal fluid after IV administration (blood-brain barrier transport); format: in vivo, rat
Description: Urethane-anesthetized rats had polyethylene (PE)-tubing cannulas placed in their femoral artery and vein. Each rat was then placed in a small animal stereotaxic apparatus, their head fixed in the lateral plane with ear bars, and their head placed in a 45-50° downward angle by placing their nose below an adjustable tooth bar. This position placed the animal's cistern magna at the highest vertical position of its body. The dural covering of the dorsal cistern magna was exposed.
A stainless steel cannula, with one end attached to PE-tubing, was placed in a stereotaxic tower cannula holder (open end down). The free end of the PE-tubing was attached to a 100 µL gas-tight Hamilton syringe with a 28-gauge needle. The cannula was adjusted to a position that approximated the middle of the exposed cistern magna, and the cannula lowered until it touched the dura mater. […] The dura has a degree of flexibility such that the cannula can depress it before it pierces it. […]
For the experimental procedure, baseline samples of blood and CSF were taken (“O” time points), followed by the IV administration of 750 nmol/kg TCMCB07. […] Both CSF and plasma were stored at −80° C. until analyzed by (HPLC) with spectrofluoremetric monitoring at 230 nm excitation and […] (the fluorescence maximum for the Nal residue). […]

[10] = Phase 1 clinical trial (NCT05529849), safety; format: in vivo, human; settings: 5 SAD and 3 MAD cohorts
Source text: Safety results of the single center, inpatient, double-blind, randomized, sequential assessment of 5 SAD (1a-5a) and 3 MAD (1b-3) cohorts dosed over 5 days TCMCB07 Phase 1 Clinical Trial (NCT05529849) have been summarized in FIG. 25. The entirety of the TCMCB07 Phase 1 Clinical Trial (NCT05529849) is incorporated herein by reference.

[11] = system: Lewis sarcoma rat model; settings: previously published results; cited from earlier work

T1 sequence (P41968 whole entry): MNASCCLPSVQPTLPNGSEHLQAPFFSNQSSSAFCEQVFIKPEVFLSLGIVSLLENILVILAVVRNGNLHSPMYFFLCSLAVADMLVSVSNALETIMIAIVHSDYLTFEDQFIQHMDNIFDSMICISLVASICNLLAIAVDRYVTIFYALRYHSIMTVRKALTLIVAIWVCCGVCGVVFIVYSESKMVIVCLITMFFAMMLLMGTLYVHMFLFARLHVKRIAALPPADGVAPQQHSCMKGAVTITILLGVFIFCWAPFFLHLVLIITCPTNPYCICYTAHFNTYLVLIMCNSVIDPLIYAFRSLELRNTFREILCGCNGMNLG
T2 sequence (P32245 whole entry): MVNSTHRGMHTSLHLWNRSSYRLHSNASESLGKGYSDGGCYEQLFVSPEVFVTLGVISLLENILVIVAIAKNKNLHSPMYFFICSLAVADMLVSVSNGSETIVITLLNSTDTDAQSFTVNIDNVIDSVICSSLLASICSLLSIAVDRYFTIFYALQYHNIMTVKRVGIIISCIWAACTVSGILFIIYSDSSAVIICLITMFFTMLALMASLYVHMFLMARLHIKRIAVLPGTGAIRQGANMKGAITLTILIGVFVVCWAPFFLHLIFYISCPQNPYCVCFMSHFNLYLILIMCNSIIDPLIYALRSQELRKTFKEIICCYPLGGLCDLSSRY

Compound: CCCC[C@H](NC(C)=O)C(=O)N[C@H]1CC(=O)NCCCC[C@@H](C(=O)N2CCC[C@@H]2C(=O)N[C@@H](C(N)=O)C(C)C)NC(=O)[C@H](Cc2c[nH]c3ccccc23)NC(=O)[C@H](CCCNC(=N)N)NC(=O)[C@@H](Cc2ccc3ccccc3c2)NC(=O)[C@@H]2CCCN2C1=O [TCMCB02, Ac-Nle-c[Asp-Pro-dNal(2′)-Arg-Trp-Lys]-dPro-dVal-NH2] (Ac-[Nle]DP[d2Nal]RWK[dP][dV]-NH2; lactam 2-7)
- Emax [1]: 101%
- IC50 [1]: < 10 µM
- Hill Coefficient ([1]; dose-response fit, MC3R): 1.03
- Top (%) ([1]; dose-response fit, MC3R): 120.45%
- Emax [2]: 120%
- IC50 [2]: < 10 µM
- Hill Coefficient ([2]; dose-response fit, MC4R): 0.69
- Top (%) ([2]; dose-response fit, MC4R): 127.47%
- body weight gain overnight ([3]; 2 mg/kg, IP): ~5%
- food intake, 12-hours overnight ([3]; 2 mg/kg, IP, baseline = previous 4-day average): 65 % of baseline
- anti-cachectic activity after ICV administration [3]: equivalent to TCMCB01
- oral activity / gastrointestinal transport ([3]; gavage (intra-gastric)): did not have oral activity; also recorded: had no oral activity
- peripheral (IP) anti-cachexia activity / blood-brain barrier transport [3]: has peripheral activity, significantly reversing LPS-induced cachexia; also recorded: produced anti-cachexia following peripheral administration
- anti-cachectic activity relative to the parent compound ([3]; rat, in vivo): 10 fold
- behavior (lethargy) [4]: restored “normal” behavior to rats

Compound: Ac-NLe-c[Asp-Pro-DNal(2′)-Arg-Trp-Lys]-Pro-Val-NH2 (Ac-[Nle]DP[d2Nal]RWKPV-NH2; lactam 2-7) [PG-932]
- peripheral activity [5]: active peripherally
- Duration [6]: 4 ± 3 min
- Peak Heart Rate Response (BPM) [6]: 13 ± 09 BPM
- Peak MAP Response (Δ mm Hg) [6]: 5 ± 3 mm Hg

Compound: Ac-Nle-c[Asp-Pro-DNal(2′)-Arg-Trp-Lys]-β^3Pro-β^2Val-NH2 [TCMCB05]
- food intake and body weight, 24-hours ([3]; 0.2 mg/kg intraperitoneally): had stimulated appetites and gained weight
- anti-cachectic activity after ICV administration [3]: molar activity equivalent to TCMCB02
- molar activity relative to TCMCB02 ([3]; ICV-administration): 10 fold
- peripheral (IP) anti-cachexia activity / blood-brain barrier transport [3]: had IP anti-cachexia activity; also recorded: had peripheral anti-cachexia activity
- behavior (lethargy) [4]: restored “normal” behavior to rats

Compound: Ac-Nle-c[Asp-His-DNal(2′)-Arg-Trp-Lys]-NH2 [SHU9119]
- reversal of anorexia [7]: about 70 % of that observed with AGRP
- Peak Heart Rate Response (BPM) [8]: 16 ± 5/3 ± 14 BPM
- Peak MAP Response (Δ mm Hg) [8]: 16 ± 5/3 ± 14 mm Hg

Compound: CCCC[C@H](NC(C)=O)C(=O)N[C@H]1CC(=O)NCCCC[C@@H](C(=O)N[C@@H](C(=O)N2CCC[C@@H]2C(N)=O)C(C)C)NC(=O)[C@H](Cc2c[nH]c3ccccc23)NC(=O)[C@H](CCCN=C(N)N)NC(=O)[C@@H](Cc2ccc3ccccc3c2)NC(=O)[C@@H]2CCCN2C1=O [TCMCB07, Ac-Nle-c[Asp-Pro-dNal(2′)-Arg-Trp-Lys]-dVal-dPro-NH2] (Ac-[Nle]DP[d2Nal]RWK[dV][dP]-NH2; lactam 2-7)
- Emax [1]: 112%
- IC50 [1]: < 10 µM and 0.0434 µM
- Emax [2]: 118%
- IC50 [2]: < 10 µM and 0.0269 µM
- presence in CSF / transport through the blood-brain-barrier ([9]; IV 750 nmol/kg, HPLC effluent by mass spectrometry): confirmed the presence of TCMCB07 in CSF; also recorded: direct physical evidence of TCMCB07 transport through the blood-brain-barrier
- level at time molar at 2 min ([9]; rat, plasma, 2 minutes post-intravenous administration, 750 nmol/kg, read-out: Concentration in plasma): 7 µM
- CAEs [10]: zero
- clinically relevant abnormal laboratory test results [10]: zero
- clinically relevant abnormal physical exams [10]: zero
- drug-related SAEs [10]: zero
- patients having abnormal ECGs [10]: zero

Compound: AGRP: natural melanocortin system inhibitor; naturally occurring melanocortin antagonist protein (SSRRCVRLHESCLGQQVPCCDPCATCYCRFFNAFCYCRKLGTAMNPCSRT; ends and bridges not checked; cysteine pairing not given here; UniProt O00253 83-132, looked up)
- reversal of feeding / cachexia-anorexia syndrome in cachexia models [11]: 100%
